Results taken from PMC2441954, “Phase I pharmacokinetic and pharmacodynamic study of the prenyl transferase inhibitor AZD3409 in patients with advanced cancer” (British Journal of Cancer, 2008).

Columns and labels:
FTase [1] = target: FTase; set-up: method as in Stephens et al, 2003; conditions: Ki4B-Ras as substrate; ref Stephens et al, 2003; cited from earlier work
GGTase-1 = target: GGTase-1; set-up: method as in Stephens et al, 2003; conditions: Ki4B-Ras as substrate; ref Stephens et al, 2003; cited from earlier work
FTase [2] = target: T1, FTase (Homo sapiens, UniProt P49356); test: FTase activity in PBMC lysates of patients (lamin B or K-Ras substrate), PK/PD Emax model; type: in vivo
T1 construct: endogenous in cells; host or cells: peripheral blood mononuclear cells (PBMCs) of treated patients, lysed
Experimental: Prior to and 2 h after intake on days 1, 2 (only predose), 8 and 22, whole-blood samples of 22.5 ml were collected in heparinised tubes for FTase activity determination in peripheral blood mononuclear cells (PBMCs). Within 30 min, the PBMC fraction was isolated using Accuspin tubes (Sigma). The cell pellet was resuspended in 100 μl lysis buffer (PBS containing 1% (v/v) Triton X-100, 0.5% (w/v) sodium deoxycholate, 0.1% (w/v) sodium dodecylsulphate and 1% (v/v) aprotinin) and stored at −70°C.
FTase activity was measured by adding 5 μl of PBMC lysate, 5 μl of lysis buffer and 10 μl of water to each well. The lysates were preincubated for 10 min prior to the addition of 20 μl of substrate solution (either lamin B or K-Ras). The reaction was initiated by the addition of 10 μl of radiolabelled farnesylpyrophosphate (fpp). The wells were incubated for 40 min at 37°C. The reaction was stopped by the addition of 100 μl of 1.5 M HCl in ethanol. The wells were stored at 4°C for 1 h and then processed using the Tomtec Harvester 96. The filter plates were dried at 37°C for 15 min, 0.35 μl MicroScint was added to each filter well and the radioactivity was counted. Each lysate was analysed in triplicate. Blanks consisted of the same reaction mixture without the substrate.
Linear mixed effects models were constructed to determine the effect of time on the enzyme activity levels. In these models, the daily dose, number of applications, time (days), measurement pre- or postdrug intake, gender and age were considered to be a fixed effect, and the patient variable was considered to be a random effect. Owing to the distribution of the response variables, square root variables were applied. Statistical analysis was performed with SAS. To determine the correlation of the dose level and the enzyme inhibition, a baseline was added to the described models.
Pharmacokinetic-pharmacodynamic correlations between the active acid metabolite and decrease in FTase activity were fitted with WinNonlin software. Only patients with a basal FTase activity that was higher than 10 pg fpp per mg protein per min were included in the model. This cutoff value was arbitrary and was chosen based on the available data (lamin B; mean: 28.0, SD: 14.2, median: 27.8, 25% percentile: 19.1 and K-Ras; mean: 29.3, SD: 17.8, median: 25.6, 25% percentile: 16.7). The decision to set a minimum baseline FTase activity implicates that the model can only be used for patients with a minimum FTase activity of 10 pg fpp per mg protein per min.

[3] = healthy male volunteers; earlier trial, no reference given; cited from earlier work
[4] = set-up: method as in Kelly et al, 2005; conditions: rats, oral dosing, pilot mass balance study; ref Kelly et al, 2005; cited from earlier work
[5] = tested on: RT-112 urothelial cells xenografts; set-up: method as in Stephens et al, 2003; Kelly et al, 2005; conditions: mice bearing RT-112 xenografts; ref Stephens et al, 2003; Kelly et al, 2005; cited from earlier work
[6] = tested on: H-Ras-transformed mouse 3T3 fibroblasts (Hras5) xenografts; set-up: method as in Stephens et al, 2003; Kelly et al, 2005; conditions: mice bearing Hras5 xenografts; ref Stephens et al, 2003; Kelly et al, 2005; cited from earlier work
tumour cells = tested on: tumour cells; set-up: method as in Kelly et al, 2005; conditions: in vitro; corresponds to the μM values; ref Kelly et al, 2005; cited from earlier work
solid malignant tumour = test: Tumour response (RECIST) in phase I patients; type: in vivo, human
Experimental: Pretreatment evaluation included a complete medical history and physical examination. Measurable and evaluable disease was documented before the start of the study and during the study as a basis for the assessment of clinical activity of the treatment. Tumour response was recorded according to RECIST criteria ([Therasse et al, 2000]). Toxicity was monitored at each visit. All toxicities observed were graded according to the Common Toxicity Criteria, version 2.0 ([National Cancer Institute, 1998]). DLT was defined as any of the following events during the first treatment cycle: grade 3 or 4 anaemia or thrombocytopaenia, febrile neutropaenia grade 3, or grade 4 neutropaenia, grade 3 or 4 biochemical toxicity, grade 2 (or worse) nausea and vomiting despite optimal antiemetic therapy, grade 3 or 4 diarrhoea despite optimal loperamide support, failure to take study medication for 7 days or more within the first treatment cycle due to drug-related toxicity or any CTC grade 3 or 4 nonhaematological toxicity (excluding alopaecia). The MTD was defined as the dose below the dose at which two or three of three, or two or more of six patients experienced DLT during cycle 1.

Calu-6 xenograft = tested on: Calu-6 xenograft; set-up: method as in unpublished data; conditions: Calu-6 xenograft model, ref unpublished data, cited from earlier work
cytochrome P450 = tested on: cytochrome P450; set-up: method as in unpublished data; conditions: once daily oral dosing to rats for 28 days; ref unpublished data; cited from earlier work
[7] = tested on: 253J-BV urothelial cells xenografts; set-up: method as in Stephens et al, 2003; Kelly et al, 2005; conditions: mice bearing 253J-BV xenografts; ref Stephens et al, 2003; Kelly et al, 2005; cited from earlier work

Row | SMILES | Ki (FTase [1]) [nM] | Ki (GGTase-1) [nM] | plasma concentration at which 90% of the maximal biological effect is reached (FTase [2]; Emax model for lamin B) | EC50 (FTase [2]; Emax model, lamin B substrate, PBMC lysate, day 1, 2 h after intake, read-out: EC50 (plasma concentration at 50% of maximal FTase inhibition) (converted)) [nM] | Emax (FTase [2]; human, Emax model, lamin B substrate, PBMC lysate, day 1, 2 h after intake, vs AZD3409 acid plasma concentration, read-out: maximal effect (Emax), maximal FTase inhibition) [%] | share of the maximally achievable FTase inhibition at mean trough concentrations (FTase [2]; twice daily dosing levels, Emax model lamin B) | dose at which diarrhoea was dose limiting [3] [mg once daily] | maximum tolerated single dose [3] [mg] | given radioactivity excreted in the urine [4] [%] | tumour weight [5] | tumour weight [6] | IC50 inhibition of cell proliferation of tumour cells, converted (tumour cells) [µg/mL] | objective tumour response (solid malignant tumour; 18 evaluable patients after 4–14 weeks of treatment) | patients with stable disease (solid malignant tumour; out of 16 patients, after approximately 2 months) | patients with stable disease (solid malignant tumour; three of 18 evaluable patients, stable for 47, 48 and 76 days) [%] | reduction of the tumour volume (Calu-6 xenograft; associated with 66% FTase inhibition) [%] | inhibition of FTase (Calu-6 xenograft) [%] | changes in cytochrome P450 content or enzyme activity (cytochrome P450) | degree of FTase inhibition in PBMCs after intake vs prior to intake (FTase [2]; each day, lamin B and K-Ras substrates, mixed effects model) | tumour weight [7]
1 | CSCC[C@H](NC(=O)c1cc(NC[C@@H]2C[C@H](S)CN2)ccc1CCc1ccc(F)cc1)C(=O)O [AZD3409 acid] | < 1 | 8 | approximately 100 ng ml^−1 | 18.8 | 49 ± 11 | at least 75% | – | – | – | – | – | – | – | – | – | – | – | – | – | –
2 | CSCC[C@H](NC(=O)c1cc(NC[C@@H]2C[C@H](SC(=O)c3cccnc3)CN2)ccc1CCc1ccc(F)cc1)C(=O)OC(C)C [AZD3409] | – | – | – | – | – | – | 2500 | 1750 | 1 | significant reduction of tumour weight | significant reduction of tumour weight | 0.035 to 3.5 | No objective tumour response was observed | 3 | 17 | 15 | 66 | no biologically significant changes | significantly higher than prior to intake | significant reduction of tumour weight
